Results from patent US20250154112A1, “A PREPARATION OF QUINAZOLINEDIONES AND USE THEREOF” (COUNCIL OF SCIENTIFIC AND INDUSTRIAL RESEARCH AN INDIAN …, priority 2021, published 2025).
pEC50: −log10 of the molar value.

Key:
[1] = Determination of EC50 (in-vitro)
HepG2 cells = experiment: Confocal microscopy of lipid droplets in oleate induced HepG2 cells; assay type: cell-based; details: 250 μM oleate induction, 100 nM and 500 nM, 24 hours
Description: To select the compounds capable of inhibiting the ubiquitination of ATGL by COP1 by targeting the VP motif, confocal microscopy was performed with the provided molecules. If the compound was effective in inhibiting the interaction, there would have been a reduction in the number of fat droplets in the cells after treatment. […] With this rationale in mind, HepG2 cells were induced to accumulate lipid droplets after treatment with 250 μM of oleate and 10 μM of the specific compounds were added. The potential of the compounds to bring about a reduction in the number of fat droplets was then checked by comparison with oleate induced cells by counting number of droplets of approximately 20 cells from each treatment and calculating the average number of lipid droplets of each cell. The selected compounds were then subjected to dose dependent treatments and the ones which could maintain its potency to reduce fat droplets at lower doses were then selected for western blot analysis. The compound which could reduce the number of fat droplets in the cells were expected to raise the levels of ATGL since they were likely to deter COP1 from ubiquitinating ATGL. This increase was visible only in the protein level and gene expression was likely to remain unchanged since ubiquitination is a […] modification. […]

[2] = system: C57BL/6 mice fed with high fat diet (HFD); experiment: HFD induced fatty liver disease model; assay type: in vivo; details: HFD 12 weeks, 80 mg/kg orally for the last 4 weeks
Description: A preclinical therapeutic model was developed where C57BL/6 mice were fed with 60% kcal high fat diet (HFD) for 12 weeks, and for the last 4 weeks the mice were orally fed with the compound 62 at 80 mg/kg body weight dose.

ATGL [3] = experiment: Western blot of ATGL level in primary mouse hepatocytes; assay type: cell-based; details: 10 nM to 500 nM, 24 hours, with respect to control
Description: To further strengthen the efficiency of the compound 62, primary hepatocytes were isolated from mice and these compounds were treated in a dose dependent manner for 24 hours. Primary hepatocytes and adipose tissue explants were isolated from mice and subjected to compound treatment for 24 hours at the doses of 10 nM, 20 nM, 50 nM, 100 nM and 500 nM. Post cell harvesting, western blot was carried out with the lysate to check the ATGL level. ATGL and COP1 antibodies were used. Actin served the purpose of a loading control.
Hepatocytes-2-4 months old chow-fed black male mouse (C57b1/6) was sacrificed using chloroform (SRL) and was cleaned with 70% ethanol. […] Blood was drawn from the heart in order to prevent backflow into liver while perfusion. The butterfly cannula was inserted into the PV and 20 ml of HBSS (Hank's Balanced Salt Solution; 5 mM KCl, 0.4 mM KH2PO4, 4 mM NaHCO3, 140 mM NaCl, 0.3 mM Na2HPO4, 6 mM Glucose, HEPES, 0.5 mM MgCl2.6H2O, 0.4 mM MgSO4·7H2O, 0.5 mM EDTA; not containing 1 mM CaCl2)) was allowed to pass through the liver (Perfusion) at a constant flow rate of 3 ml/min, maintained by Masterflex digital peristaltic pump (Cole-Parmer). The IVC was cut as soon as the passage of the buffer through the liver began, so that blood and perfusate from liver was drained through the IVC. The liver blanched and became pale in color upon this treatment. […]

ATGL [4] = experiment: In vivo study, Western blot of ATGL in mice liver and adipose tissue; parameters: species or system C57BL/6 mice; details: 80 mg/kg orally, 9 days
Description: 6-8 weeks old healthy male C57BL/6 mice (average weight: 28 grams) were taken for the study. These were then divided into two groups comprising of three mice per group (Control, compound 62). Mice were fed with 80 mg/kg of compound 62 orally. The compound was dissolved in 10% EtOH, 40% PEG, 20% PG, 30% NaCl solution (0.9%). The control group was fed only with the solvent in which the compound was dissolved. Post 9 days of one-time feeding mice were sacrificed and a portion of the excised liver tissue and adipose was homogenized in lysis buffer containing protease inhibitor cocktail. The homogenate was centrifuged at 20,000 g for 30 minutes following which the supernatant containing the protein lysate was collected. The lysate was then diluted accordingly, and protein estimation was carried out by Bradford Assay. This was followed by Western Blotting wherein the levels of ATGL and COP1 were checked. Actin was used as the loading control.

pEC50 [1]: 7.34
SMILES: COCCn1c(=O)c2cc(NC(=O)Nc3cccc(C(C)=O)c3)ccc2n(CCN2CCCCC2)c1=O [Compound 62, 1-(3-acetylphenyl)-3-(3-(2-methoxyethyl)-2,4-dioxo-1-(2-(piperidin-1-yl)ethyl)-1,2,3,4-tetrahydroquinazolin-6-yl)urea]
number of lipid droplets (HepG2 cells): decrease in the number of lipid droplets
body weight [2]: Reductions
hepatic fibrogenesis [2]: improvement in hepatic fibrogenesis
hepatic lipid droplets (FIG. 7A) [2]: considerable depletion of hepatic lipid droplets
liver triglyceride content [2]: Reductions
serum cholesterol level [2]: Reductions
total liver weight [2]: Reductions
ATGL level (Western Blot) (ATGL [3]): increased ATGL level
ATGL levels in liver and adipose lysates (ATGL [4]): effective in increasing ATGL and COP1 levels
